Results published in patent US6617321B2, “2-methyl-thieno-benzodiazepine formulation” (Eli Lilly and Company, priority 1997, dated 2003).

Test: Solubility of olanzapine pamoate salts as a function of pH
Type: physicochemical
Conditions: particularly in the range of pH 4 to 8

In the case of Cc1cc2c(s1)Nc1ccccc1N=C2N1CCN(C)CC1.O=C(O)c1cc2ccccc2c(Cc2c(O)c(C(=O)O)cc3ccccc23)c1O [olanzapine pamoate, 2-methyl-4-(4-methyl-1-piperazinyl)-10H-thieno[2,3-b][1,5]benzodiazepine pamoate], the “solubility, dependence on pH” value is reported as “somewhat independent of pH”.
